Measured values: patent US12187709B2 (Genentech, Inc., priority 2021, dated 2025)

Columns and labels:
[1] = biological target: c-Cbl (residues 47-435) (Homo sapiens (Human), UniProt P22681); experiment: c-Cbl SPR assay; assay type: binding; settings: 20° C.
How it was run: (§1)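 Binding is measured by surface plasmon resonance against both isoforms, with double referencing and 1:1 kinetic fitting. Dissociation time is tuned to 4-5 half-lives.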

[2] = biological target: Human Cbl-b (residues 40-426) (Homo sapiens (Human), UniProt Q13191); experiment: Cbl-b SPR assay; assay type: binding; settings: for Fold of selectivity: C-cbl SPR Kd vs Cbl-b SPR Kd; for Kd: SPR, 20° C.
How it was run: as §1

[3] = biological target: Cbl-b (Homo sapiens (Human), UniProt Q13191); experiment: Cbl-b LCK Ub TR-FRET assay (Cbl-b Lck HTRF); assay type: biochemical; settings: for IC50: Cbl-b LCK Ub TR-FRET; for fold-selectivity (Cbl-b over C-cbl): ratio C-cbl Lck HTRF IC50 / Cbl-b Lck HTRF IC50
How it was run: (§2)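 Signal is read once the detection mix has stood 20 min at ambient temperature. Curves are anchored by DMSO as maximum and by omission of LCK as minimum.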

[4] = biological target: c-Cbl (Homo sapiens (Human), UniProt P22681); experiment: C-Cbl LCK Ub TR-FRET assay (C-cbl Lck HTRF); assay type: biochemical
How it was run: as §2

Chain of Cbl-b (Q13191 40-426): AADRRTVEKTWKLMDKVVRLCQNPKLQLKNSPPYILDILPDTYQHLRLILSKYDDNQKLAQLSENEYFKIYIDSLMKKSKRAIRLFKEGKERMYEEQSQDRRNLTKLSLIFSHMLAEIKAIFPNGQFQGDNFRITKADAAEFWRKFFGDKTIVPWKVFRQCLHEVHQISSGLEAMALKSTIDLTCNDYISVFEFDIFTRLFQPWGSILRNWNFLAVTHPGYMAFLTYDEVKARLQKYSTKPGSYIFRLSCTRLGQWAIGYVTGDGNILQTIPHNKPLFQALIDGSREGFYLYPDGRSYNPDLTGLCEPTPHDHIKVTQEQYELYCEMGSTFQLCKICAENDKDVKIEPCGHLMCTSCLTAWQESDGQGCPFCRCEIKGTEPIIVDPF
Chain of Human Cbl-b (residues 40-426) (Q13191 40-426): as above
Chain of c-Cbl (residues 47-435) (P22681 47-435): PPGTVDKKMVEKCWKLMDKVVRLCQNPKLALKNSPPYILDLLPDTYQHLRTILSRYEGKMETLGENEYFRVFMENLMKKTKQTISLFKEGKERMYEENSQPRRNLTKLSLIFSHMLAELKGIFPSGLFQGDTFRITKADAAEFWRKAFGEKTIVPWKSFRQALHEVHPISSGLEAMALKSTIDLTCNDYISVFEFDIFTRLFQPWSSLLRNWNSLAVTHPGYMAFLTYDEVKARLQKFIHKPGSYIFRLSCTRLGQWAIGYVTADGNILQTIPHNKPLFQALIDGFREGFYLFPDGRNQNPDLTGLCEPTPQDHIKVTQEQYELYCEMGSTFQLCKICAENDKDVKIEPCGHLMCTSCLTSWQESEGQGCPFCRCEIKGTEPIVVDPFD
Chain of c-Cbl (P22681 47-435): as above

SMILES | Kd [1] | Fold of selectivity [2] | Kd [2] | IC50 [3] | fold-selectivity (Cbl-b over C-cbl) [3] | IC50 [4]
Cn1cnnc1[C@H](c1cccc(N2Cc3c(cc(CNC4(C)CCC4)cc3C(F)(F)F)C2=O)c1)C1CC(OCC(F)F)C1 (single isomer, unassigned) [Compound 263] | 10 nM | 5.4× | 1.9 nM | 10 nM | 1.8x | 18 nM
CCOC1CC([C@H](c2cccc(N3Cc4c(cc(CNC5(C)CCC5)cc4C(F)(F)F)C3=O)c2)c2nncn2C)C1 (single isomer, unassigned) [Compound 265] | 1300 nM | 7.5× | 180 nM | 310 nM | 11x | 3400 nM
CCOC1CC([C@@H](c2cccc(N3Cc4c(cc(CNC5(C)CCC5)cc4C(F)(F)F)C3=O)c2)c2nncn2C)C1 (single isomer, unassigned) [Compound 267] | 190 nM | 7.6× | 25 nM | 37 nM | 4.5x | 170 nM
C[C@@H](NC1(C)CCC1)c1cc(Cl)c2c(c1)C(=O)N(c1cccc([C@]3(c4nncn4C)C[C@@H](F)C3)c1)C2 (single isomer, unassigned) [Compound 288] | 0.35 nM | 3.5× | 0.1 nM | 5.3 nM | 0.92x | 4.9 nM
C[C@H](NC1(C)CCC1)c1cc(Cl)c2c(c1)C(=O)N(c1cccc([C@]3(c4nncn4C)C[C@@H](F)C3)c1)C2 (single isomer, unassigned) [Compound 289] | 37 nM | 8.5× | 4.6 nM | 18 nM | 2.4x | 43 nM
Cn1cnnc1[C@H](c1cccc(N2Cc3c(cc(CNC4(C)CCC4)cc3C(F)(F)F)C2=O)c1)C1CCOCC1.O=CO (single isomer, unassigned) [Compound 291, (S)-2-(3-((4-methyl-4H-1,2,4-triazol-3-yl)(tetrahydro-2H-pyran-4-yl)methyl)phenyl)-6-(((1-methylcyclobutyl)amino)methyl)-4-(trifluoromethyl)isoindolin-1-one formate] | 130 nM |  | 62 nM | 11 nM |  | 47 nM
Cn1cnnc1C1(c2cccc(N3Cc4c(cc([C@@H](O)CO)cc4C(F)(F)F)C3=O)c2)CCC1 (single isomer, unassigned) [Compound 301] | 1400 nM | 2.8× | 560 nM | 300 nM | 2.0x | 590 nM
Cn1cnnc1C1(c2cccc(N3Cc4c(cc([C@H](O)CO)cc4C(F)(F)F)C3=O)c2)CCC1 (single isomer, unassigned) [Compound 302] | 1600 nM | 4.0× | 410 nM | 410 nM | 2.1x | 880 nM
Cn1cnnc1[C@@H](c1cccc(N2Cc3c(cc(CNC4(C)CCC4)cc3C(F)F)C2=O)c1)C1COC1 (single isomer, unassigned) [Compound 303] | 28 nM | 8.2× | 3.3 nM | 11 nM | 2.3x | 26 nM
Cn1cnnc1[C@@](O)(c1cccc(N2Cc3c(cc(CNC4(C)CCC4)cc3C(F)(F)F)C2=O)c1)C(F)(F)F (single isomer, unassigned) [Compound 308] | 56 nM | 1.5× | 37 nM | 27 nM | 1.5x | 41 nM
C[C@@H](NC1(C)CCC1)c1cc(Cl)c2c(c1)C(=O)N(c1cccc([C@]3(c4nncn4C)C[C@H](F)C3)c1)C2 (single isomer, unassigned) [Compound 311] | 0.25 nM | 2.5× | 0.1 nM | 4 nM | 1.1x | 4.3 nM
C[C@H](NC1(C)CCC1)c1cc(Cl)c2c(c1)C(=O)N(c1cccc([C@]3(c4nncn4C)C[C@H](F)C3)c1)C2 (single isomer, unassigned) [Compound 312] | 28 nM | 14× | 2 nM | 7.8 nM | 3.5x | 27 nM
CC[C@@H](NC1(C)CCC1)c1cc2c(c(C(F)(F)F)c1)CN(c1cccc([C@@H](c3nncn3C)C3COC3)c1)C2=O (single isomer, unassigned) [Compound 316] | 1300 nM | 7.5× | 170 nM | 270 nM | 11x | 3100 nM
Cn1cnnc1[C@@H](c1cccc(N2Cc3c(Cl)cc(CNC4(C)CCC4)cc3C2=O)c1)[C@H]1C[C@H](F)C1 (single isomer, unassigned) [Compound 318] | 2300 nM | 9.6× | 250 nM | 280 nM | 5.6x | 1600 nM
Cn1cnnc1[C@H](c1cccc(N2Cc3c(Cl)cc(CNC4(C)CCC4)cc3C2=O)c1)[C@H]1C[C@@H](F)C1 (single isomer, unassigned) [Compound 319] | 53 nM | 8.0× | 6.4 nM | 12 nM | 3.5x | 41 nM
Cn1cnnc1[C@H](c1cccc(N2Cc3c(Cl)cc(CNC4(C)CCC4)cc3C2=O)c1)[C@H]1C[C@H](F)C1 (single isomer, unassigned) [Compound 320] | 2.2 nM | 5.5× | 0.4 nM | 5.6 nM | 1.3x | 7.5 nM
Cc1cc([C@@H](c2nncn2C)C2COC2)cc(N2Cc3c(cc(CNC4(C)CCC4)cc3C(F)(F)F)C2=O)c1 (single isomer, unassigned) [Compound 333] | 56 nM | 2.2× | 26 nM | 39 nM | 1.0x | 41 nM
COc1cc([C@@H](c2nncn2C)C2COC2)cc(N2Cc3c(cc(CNC4(C)CCC4)cc3C(F)(F)F)C2=O)c1 (single isomer, unassigned) [Compound 339] | 4.2 nM | 2.5× | 1.7 nM | 5.6 nM | 1.1x | 6.3 nM
Cn1cnnc1[C@@H](c1cccc(N2Cc3c(cc(CNC4(C)CCC4)cc3C(F)(F)F)C2=O)c1)C1CC1 (single isomer, unassigned) [Compound 342] | 1.2 nM | 2.4× | 0.5 nM | 5.6 nM | 1.2x | 6.6 nM
Cn1cnnc1[C@H](c1cccc(N2Cc3c(cc(CNC4(C)CCC4)cc3C(F)(F)F)C2=O)c1)C1CC1 (single isomer, unassigned) [Compound 343] | 2800 nM | 6.4× | 440 nM | 290 nM | 2.1x | 610 nM
